Laboratory results reported in patent publication US11142526B2, “Spirocycle compounds and methods of making and using same” (H. Lundbeck A/S, priority 2017, dated 2021).
pIC50: −log10 of the molar value. Read-outs that look alike come from different tables or passages of the source.

Assays:
MAGL [1] = molecular target: MAGL (Homo sapiens (Human), UniProt Q99685); assay: In vitro competitive activity-based protein profiling (gel-based, FP-Rh or HT-01 probe); type: biochemical
Method: In Vitro Competitive Activity-Based Protein Profiling.
Proteomes (human prefrontal cortex or cell membrane fractions) (50 μL, 1.0 mg/mL total protein concentration) were preincubated with varying concentrations of inhibitors at 37° C. After 30 min, FP-Rh or HT-01 (1.0 μL, 50 μM in DMSO) was added and the mixture was incubated for another 30 min at room temperature. Reactions were quenched with SDS loading buffer (15 μL—4×) and run on SDS-PAGE.

MAGL [2] = molecular target: T1, MAGL (Mus musculus (Mouse), UniProt O35678); assay: Mouse brain proteomes from inhibitor treated mice (oral gavage, brain MAGL activity 4 h after administration); type: in vivo; conditions: 5 mg/kg oral gavage
Method: Preparation of Mouse Brain Proteomes from Inhibitor Treated Mice.
Inhibitors were administered to wild-type C57B1/6J by oral gavage in a vehicle of polyethylene glycol.

MAGL [3] = molecular target: T1, MAGL; assay: In vitro competitive activity-based protein profiling, mouse brain proteome; type: biochemical; conditions: for inhibition at 1 µM: mouse; for pIC50: mouse brain
[4] = human PC3, read-out: MAGL % Inhibition at 1 μM (human PC3)
[5] = human PFC (prefrontal cortex), read-out: MAGL % Inhibition at 1 μM (human PFC)
[6] = human PC3, read-out: MAGL Human PC3 (IC50)

T1 sequence (O35678 whole entry): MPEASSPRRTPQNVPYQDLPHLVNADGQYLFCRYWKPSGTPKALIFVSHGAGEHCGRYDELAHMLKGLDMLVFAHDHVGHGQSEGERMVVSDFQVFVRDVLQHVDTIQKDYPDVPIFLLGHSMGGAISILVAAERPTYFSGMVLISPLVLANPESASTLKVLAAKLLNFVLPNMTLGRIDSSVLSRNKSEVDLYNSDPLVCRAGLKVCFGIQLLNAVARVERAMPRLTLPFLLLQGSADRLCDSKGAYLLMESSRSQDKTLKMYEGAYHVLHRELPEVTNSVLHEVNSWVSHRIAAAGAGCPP
MAGL (Homo sapiens (Human), UniProt Q99685), sequence (Q99685 whole entry): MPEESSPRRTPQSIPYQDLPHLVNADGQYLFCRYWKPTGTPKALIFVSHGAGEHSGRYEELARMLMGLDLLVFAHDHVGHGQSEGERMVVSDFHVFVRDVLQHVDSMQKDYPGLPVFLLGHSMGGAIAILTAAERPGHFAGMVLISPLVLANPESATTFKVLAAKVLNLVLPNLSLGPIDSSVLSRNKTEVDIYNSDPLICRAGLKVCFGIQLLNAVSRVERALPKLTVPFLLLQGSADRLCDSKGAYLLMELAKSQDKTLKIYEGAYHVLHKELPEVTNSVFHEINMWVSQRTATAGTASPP

CC(C)Oc1cnc(C2(C(=O)N3CCCC34CCN(C(=O)OC(C(F)(F)F)C(F)(F)F)CC4)CC2)nc1 [Example 194, 1,1,1,3,3,3-Hexafluoropropan-2-yl 1-(1-(5-isopropoxypyrimidin-2-yl)cyclopropane-1-carbonyl)-1,8-diazaspiro [4.5]decane-8-carboxylate]
inhibition at 1 µM (MAGL [1]; [4]): > 75% | inhibition at 1 µM (MAGL [1]; [5]): > 75% | pIC50 (MAGL [1]; [6]): > 7.00 | MAGL % Inhibition at 5 mg/kg (Mouse) (MAGL [2]): ### (% inhibition is greater than or equal to 75%) | inhibition at 1 µM (MAGL [3]): > 75%

O=C(O)C1CCN(c2nc(C(F)(F)F)ccc2CN2CCCC23CCN(C(=O)OC(C(F)(F)F)C(F)(F)F)CC3)CC1 [Example 123, 1-(3-((8-(((1,1,1,3,3,3-Hexafluoropropan-2-yl)oxy)carbonyl)-1,8-diazaspiro[4.5]decan-1-yl)methyl)-6-(trifluoromethyl)pyridin-2-yl)piperidine-4-carboxylic acid]
inhibition at 1 µM (MAGL [1]; [5]): > 75% | pIC50 (MAGL [1]; [6]): > 7.00 | MAGL % Inhibition at 5 mg/kg (Mouse) (MAGL [2]): ### (% inhibition is greater than or equal to 75%) | inhibition at 1 µM (MAGL [3]): > 75%

O=C(OC(C(F)(F)F)C(F)(F)F)N1CCC2(CCCN2C(=O)c2cc3n(n2)CCN(C2CC2)C3)CC1 [Example 155, 1,1,1,3,3,3-Hexafluoropropan-2-yl 1-(5-cyclopropyl-4,5,6,7-tetrahydropyrazolo [1,5-a]pyrazine-2-carbonyl)-1,8-diazaspiro[4.5] decane-8-carboxylate]
inhibition at 1 µM (MAGL [1]; [4]): > 75% | inhibition at 1 µM (MAGL [1]; [5]): > 75% | pIC50 (MAGL [1]; [6]): > 7.00 | MAGL % Inhibition at 5 mg/kg (Mouse) (MAGL [2]): ### (% inhibition is greater than or equal to 75%) | inhibition at 1 µM (MAGL [3]): > 75%

CC(C)(O)CN1CCn2c(nnc2C(=O)NC2(C)CCN(C(=O)OC(C(F)(F)F)C(F)(F)F)CC2)C1 [Example 206, 1,1,1,3,3,3-Hexafluoropropan-2-yl 4-(7-(2-hydroxy-2-methylpropyl)-5,6,7,8-tetrahydro-[1,2,4]triazolo[4,3-a]pyrazine-3-carboxamido)-4-methylpiperidine-1-carboxylate]
inhibition at 1 µM (MAGL [1]; [4]): > 75% | inhibition at 1 µM (MAGL [1]; [5]): > 75% | pIC50 (MAGL [1]; [6]): > 7.00 | MAGL % Inhibition at 5 mg/kg (Mouse) (MAGL [2]): ### (% inhibition is greater than or equal to 75%) | inhibition at 1 µM (MAGL [3]): > 75%

CC1(NC(=O)c2cn3c(n2)CN(C(=O)C2(C)CC2)CC3)CCN(C(=O)OC(C(F)(F)F)C(F)(F)F)CC1 [Example 190, 1,1,1,3,3,3-Hexafluoropropan-2-yl 4-methyl-4-(7-(1-methylcyclopropane-1-carbonyl)-5,6,7,8-tetrahydroimidazo[1,2-a]pyrazine-2-carboxamido) piperidine-1-carboxylate]
inhibition at 1 µM (MAGL [1]; [4]): > 75% | pIC50 (MAGL [1]; [6]): > 7.00 | MAGL % Inhibition at 5 mg/kg (Mouse) (MAGL [2]): # (% inhibition less or equal to 25%) | inhibition at 1 µM (MAGL [3]): > 75%

Cc1c(CN2CCCC23CCN(C(=O)OC(C(F)(F)F)C(F)(F)F)CC3)[nH]c2ccc(F)cc12 [Example 58, 1,1,1,3,3,3-Hexafluoropropan-2-yl 1-((5-fluoro-3-methyl-1H-indol-2-yl)methyl)-1,8-diazaspiro[4.5] decane-8-carboxylate]
pIC50 (MAGL [1]; [6]): > 7.00 | MAGL % Inhibition at 5 mg/kg (Mouse) (MAGL [2]): ### (% inhibition is greater than or equal to 75%) | inhibition at 1 µM (MAGL [3]): > 75% | pIC50 (MAGL [3]): > 7.00

O=C(OC(C(F)(F)F)C(F)(F)F)N1CCC2(CCCN2C(=O)C2(c3cccnn3)CC2)CC1 [Example 179, 1,1,1,3,3,3-Hexafluoropropan-2-yl 1-(1-(pyridazin-3-yl)cyclopropane-1-carbonyl)-1,8-diazaspiro [4.5]decane-8-carboxylate]
inhibition at 1 µM (MAGL [1]; [4]): > 75% | inhibition at 1 µM (MAGL [1]; [5]): > 75% | pIC50 (MAGL [1]; [6]): > 7.00 | MAGL % Inhibition at 5 mg/kg (Mouse) (MAGL [2]): ## (% inhibition is less than 75% and greater than 25%) | inhibition at 1 µM (MAGL [3]): > 75%

O=C(OC(C(F)(F)F)C(F)(F)F)N1CCC2(CCCN2C(=O)c2cncnc2N2CCCC2)CC1 [Example 5, 1,1,1,3,3,3-Hexafluoropropan-2-yl 1-(4-(pyrrolidin-1-yl)pyrimidine-5-carbonyl)-1,8-diazaspiro[4.5]decane-8-carboxylate]
inhibition at 1 µM (MAGL [1]; [5]): > 75% | pIC50 (MAGL [1]; [6]): > 7.00 | pIC50 (MAGL [1]; human PFC (prefrontal cortex), read-out: MAGL Human PFC (IC50)): > 7.00 | MAGL % Inhibition at 5 mg/kg (Mouse) (MAGL [2]): ### (% inhibition is greater than or equal to 75%) | inhibition at 1 µM (MAGL [3]): > 75%

CN(C(=O)c1cn2c(n1)CN(C1CC1)CC2)C1(C)CCN(C(=O)OC(C(F)(F)F)C(F)(F)F)CC1 [Example 18, 1,1,1,3,3,3-Hexafluoropropan-2-yl 4-(7-cyclopropyl-N-methyl-5,6,7,8-tetrahydroimidazo[1,2-a]pyrazine-2-carboxamido)-4-methylpiperidine-1-carboxylate]
inhibition at 1 µM (MAGL [1]; [4]): > 75% | inhibition at 1 µM (MAGL [1]; [5]): > 75% | pIC50 (MAGL [1]; [6]): > 7.00 | MAGL % Inhibition at 5 mg/kg (Mouse) (MAGL [2]): ### (% inhibition is greater than or equal to 75%) | inhibition at 1 µM (MAGL [3]): > 75% | pIC50 (MAGL [3]): > 7.00

Cc1cc(C)c2[nH]c(C(=O)N3CCCC34CCN(C(=O)OC(C(F)(F)F)C(F)(F)F)CC4)c(C)c2c1 [Example 63, 1,1,1,3,3,3-Hexafluoropropan-2-yl 1-(3,5,7-trimethyl-1H-indole-2-carbonyl)-1,8-diazaspiro[4.5] decane-8-carboxylate]
pIC50 (MAGL [1]; [6]): > 7.00 | MAGL % Inhibition at 5 mg/kg (Mouse) (MAGL [2]): ### (% inhibition is greater than or equal to 75%) | inhibition at 1 µM (MAGL [3]): > 75% | pIC50 (MAGL [3]): > 7.00

CC1(NC(=O)c2nnc3n2CCN(C2CCOCC2)C3)CCN(C(=O)OC(C(F)(F)F)C(F)(F)F)CC1 [Example 209, 1,1,1,3,3,3-Hexafluoropropan-2-yl 4-methyl-4-(7-(tetrahydro-2H-pyran-4-yl)-5,6,7,8-tetrahydro-[1,2,4]triazolo [4,3-a]pyrazine-3-carboxamido) piperidine-1-carboxylate]
inhibition at 1 µM (MAGL [1]; [4]): > 75% | inhibition at 1 µM (MAGL [1]; [5]): > 75% | pIC50 (MAGL [1]; [6]): > 7.00 | MAGL % Inhibition at 5 mg/kg (Mouse) (MAGL [2]): ### (% inhibition is greater than or equal to 75%) | inhibition at 1 µM (MAGL [3]): > 75%

Cn1cc(Cl)c(C(=O)N2CCCC23CCN(C(=O)OC(C(F)(F)F)C(F)(F)F)CC3)n1 [Example 120, 1,1,1,3,3,3-Hexafluoropropan-2-yl 1-(4-chloro-1-methyl-1H-pyrazole-3-carbonyl)-1,8-diazaspiro[4.5] decane-8-carboxylate]
inhibition at 1 µM (MAGL [1]; [5]): > 75% | pIC50 (MAGL [1]; [6]): > 7.00 | MAGL % Inhibition at 5 mg/kg (Mouse) (MAGL [2]): ### (% inhibition is greater than or equal to 75%) | inhibition at 1 µM (MAGL [3]): > 75%

CC1(NC(=O)c2cn3c(n2)CN(C(=O)C(C)(C)C)CC3)CCN(C(=O)OC(C(F)(F)F)C(F)(F)F)CC1 [Example 191, 1,1,1,3,3,3-Hexafluoropropan-2-yl 4-methyl-4-(7-pivaloyl-5,6,7,8-tetrahydroimidazo[1,2-a]pyrazine-2-carboxamido) piperidine-1-carboxylate]
inhibition at 1 µM (MAGL [1]; [4]): > 75% | pIC50 (MAGL [1]; [6]): > 7.00 | MAGL % Inhibition at 5 mg/kg (Mouse) (MAGL [2]): # (% inhibition less or equal to 25%) | inhibition at 1 µM (MAGL [3]): > 75%

Cc1nc2cccnn2c1C(=O)N1CCCC12CCN(C(=O)OC(C(F)(F)F)C(F)(F)F)CC2 [Example 143, 1,1,1,3,3,3-Hexafluoropropan-2-yl 1-(2-methyl-imidazo[1,2-b]pyridazine-3-carbonyl)-1,8-diazaspiro[4.5] decane-8-carboxylate]
inhibition at 1 µM (MAGL [1]; [4]): > 75% | inhibition at 1 µM (MAGL [1]; [5]): > 75% | pIC50 (MAGL [1]; [6]): > 7.00 | MAGL % Inhibition at 5 mg/kg (Mouse) (MAGL [2]): ### (% inhibition is greater than or equal to 75%) | inhibition at 1 µM (MAGL [3]): > 75%

CC(C)n1cc(CN2CCCC23CCN(C(=O)OC(C(F)(F)F)C(F)(F)F)CC3)c(-c2ccccc2F)n1 [Example 221, 1,1,1,3,3,3-Hexafluoropropan-2-yl 1-((3-(2-fluorophenyl)-1-isopropyl-1H-pyrazol-4-yl)methyl)-1,8-diazaspiro[4.5] decane-8-carboxylate]
pIC50 (MAGL [1]; [6]): > 7.00 | MAGL % Inhibition at 5 mg/kg (Mouse) (MAGL [2]): ### (% inhibition is greater than or equal to 75%) | inhibition at 1 µM (MAGL [3]): > 75% | pIC50 (MAGL [3]): > 7.00

O=C(OC(C(F)(F)F)C(F)(F)F)N1CCC2(CCCN2C(=O)C2(c3cnc(C4CC4)nc3)CC2)CC1 [Example 38, 1,1,1,3,3,3-Hexafluoropropan-2-yl 1-(1-(2-cyclopropylpyrimidin-5-yl)cyclopropane-1-carbonyl)-1,8-diazaspiro[4.5]decane-8-carboxylate]
inhibition at 1 µM (MAGL [1]; [4]): > 75% | inhibition at 1 µM (MAGL [1]; [5]): > 75% | pIC50 (MAGL [1]; [6]): > 7.00 | MAGL % Inhibition at 5 mg/kg (Mouse) (MAGL [2]): ### (% inhibition is greater than or equal to 75%) | inhibition at 1 µM (MAGL [3]): > 75%

Cc1nc2ccc(Cl)nn2c1C(=O)N1CCCC12CCN(C(=O)OC(C(F)(F)F)C(F)(F)F)CC2 [Example 142, 1,1,1,3,3,3-Hexafluoropropan-2-yl 1-(6-chloro-2-methylimidazo[1,2-b]pyridazine-3-carbonyl)-1,8-diazaspiro[4.5] decane-8-carboxylate]
inhibition at 1 µM (MAGL [1]; [4]): > 75% | inhibition at 1 µM (MAGL [1]; [5]): > 75% | pIC50 (MAGL [1]; [6]): > 7.00 | MAGL % Inhibition at 5 mg/kg (Mouse) (MAGL [2]): ### (% inhibition is greater than or equal to 75%) | inhibition at 1 µM (MAGL [3]): > 75%

CC1(NC(=O)c2nnc3n2CCN(C2COC2)C3)CCN(C(=O)OC(C(F)(F)F)C(F)(F)F)CC1 [Example 207, 1,1,1,3,3,3-Hexafluoropropan-2-yl 4-methyl-4-(7-(oxetan-3-yl)-5,6,7,8-tetrahydro-[1,2,4]triazolo [4,3-a]pyrazine-3-carboxamido) piperidine-1-carboxylate]
inhibition at 1 µM (MAGL [1]; [4]): > 75% | inhibition at 1 µM (MAGL [1]; [5]): > 75% | pIC50 (MAGL [1]; [6]): > 7.00 | MAGL % Inhibition at 5 mg/kg (Mouse) (MAGL [2]): ### (% inhibition is greater than or equal to 75%) | inhibition at 1 µM (MAGL [3]): > 75%
